Measurements as given in patent US7094807B2, “Substituted aryl thioureas and related compounds; inhibitors of viral replication” (Achillion Pharmaceuticals, Inc., priority 2002, dated 2006).

Each compound was assayed on HCV replicon (assay: HCV replicon assay (NPT ELISA in HCV replicon-containing cells)). Settings: Hepatitis C virus, 72 h; HCV replicon-containing Huh-7 cells; three days incubation; read-out: EC50 for inhibition of replication of the HCV replicon.
Assay type: cell-based
Method: The compounds claimed herein were tested for the ability to inhibit viral replication of the Hepatitis C replicon in cultured cells in which the HCV replicon construct has been incorporated. The HCV replicon system was described by Bartenschlager, et. al (Science, 285, pp. 110-113 (1999)). The replicon system is predictive of in vivo anti-HCV activity; compounds that are active in humans uniformly evidence activity in the replicon assay.
In this assay HCV replicon containing cells are treated with different concentrations of the test compound to ascertain the ability of the test compound to suppress replication of the HCV replicon. As a positive control, HCV replicon-containing cells are treated with different concentrations of interferon alpha, a known inhibitor of HCV replication. The replicon assay system includes Neomycin Phosphotransferase (NPT) as a component of the replicon itself in order to detect the transcription of replicon gene products in the host cell. Cells in which the HCV replicon is actively replicating have high levels of NPT; the level of NPT is proportional to HCV replication. […] The NPT level of each sample is measured using a captured ELISA.
A protocol for testing compounds for the ability to inhibit viral replication of the Hepatitis C replicon cultured cells in which the replicon construct has been incorporated, follows.
The HCV replicon contains, 5-′3′, the HCV-IRES, the neomycin phosphotransferase (neo) gene, the IRES of encephalomyocarditis virus, which directs translation of HCV sequences NS3 to NS5B, and the 3′-NTR. The sequence of the HCV replicon has been deposited in GenBank (Accession no. AJ242652).
The replicon is transfected into Huh-7 cells using standard methods such as electroporation.
The equipment and materials include, but are not limited to, Huh-7 HCV replicon-containing cells, maintenance media (DMEM (Dulbecco's modified Eagle media) supplemented with 10% FBS, L-glutamine, non-essential amino acids, penicillin (100 units/ml), streptomycin (100 micrograms/ml), and 500 micrograms/ml of Geneticin G418), screening media (DMEM supplemented with 10% FBS, L-glutamine, and non-essential amino acid, penicillin (100 units/ml) and streptomycin (100 micrograms/ml)), 96 well tissue culture plates (flat bottom), 96 well plates (U bottom for drug dilution), Interferon alpha for positive control, fixation reagent (such as methanol: acetone), primary antibody (rabbit anti-NPTII), secondary antibody: Eu-N1 l, and enhancement solution.
HCV replicon-containing cells are rinsed with once PBS once; 2 mls of trypsin is added. Cells are incubated at 37° C. in a 5% CO2 incubator for 3-5 minutes. 10 mls of complete medium is added to stop the reaction. Cells are blown gently, put into a 15 ml tube, and spun at 1200 rpm for four minutes. The trypsin/medium solution is removed and 5 mls of medium (500 ml DMEM (high glucose)) from BRL catalog #12430-054; 50 mls 10% FBS, […] (50 mg/ml, BRL 10131-035), 5 ml MEM non-essential amino acid (100×BRL #11140-050) and 5 ml pen-strep (BRL #15140-148) is added. The cells and media are mixed carefully
Cells are plated with screening medium (500 ml DMEM (BRL #21063-029), 50 ml FBS (BRL #10082-147) and 5 ml MEM non-essential amino acid (BRL #11140-050) at 6000-7500 cells/100 μl/well of 96 well plate (6-7.5×10^5 cells/10 ml/plate). Plates are placed into 37° C. 5% CO2 incubator overnight.
The following morning, drugs (test compounds or interferon alpha) are diluted in 96 well U bottom plates with media or DMSO/media, depending on the final concentration chosen for screening. Generally for 6 concentrations of each test compounds ranging from 10 micromolar to 0.03 micromolar are applied. 100 μl of the test compound dilution is placed in wells of the 96 well plate containing the HCV replicon cells. Media without drug is added to some wells as a negative controls. DMSO is known to affect cell growth. […]

For `O=C(NC(=S)Nc1cccc(OCc2ccccc2)c1)C1Cc2ccccc2O1` (stereo not shown) [Compound 39, 1-(3-Benzyloxy-phenyl)-3-(2,3-dihydro-benzofuran-2-carbonyl)-thiourea], which EC50 is on record?
The EC50 was < 30 µM.

With `O=C(NC(=S)Nc1cccc(OCc2ccccc2)c1)C1COc2ccccc2O1` (stereo not shown) [Compound 40, 1-(3-Benzyloxy-phenyl)-3-(2,3-dihydro-benzo[1,4]dioxine-2-carbonyl)-thiourea] as the compound, how does the EC50 read?
The EC50 was < 30 µM.

`O=C(NC(=S)Nc1cccc(OCc2ccccc2)c1)C1CCc2ccccc2O1` (stereo not shown) [Compound 41, 1-(3-Benzyloxy-phenyl)-3-(chroman-2-carbonyl)-thiourea] was tested. Which EC50 did it give?
The EC50 was < 30 µM.

For `O=C(NC(=S)Nc1cccc(OCc2ccccc2)c1)c1ccc2ccccc2n1` [Compound 42, 1-(3-Benzyloxy-phenyl)-3-(quinoline-2-carbonyl)-thiourea], which EC50 is on record?
Its EC50 is < 30 µM.
